“Also recorded” adds a separate entry of the source. Where two headings read alike, the source gives them in different places.
How the values were obtained:
[1] = test system: AP-1, MTLN lineage (MCF-7); assay: Anti-AP-1 effect, MTLN lineage activated by TPA; format: cell-based, human; conditions: for inhibition at 0.1 µM / inhibition at 0.01 µM / inhibition at 1 µM: Homo sapiens; for anti-AP-1 effect (in words): TPA-activated MTLN cells; for inhibition at 1 µM: 10^-6 M
Summary of the method: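 Percent inhibition of AP-1-driven luciferase after basal activity deduction, expressed as a range across repeat experiments. Cells: MTLN, an MCF-7 line stably transfected with p(TRE)3-tk-Luc and stimulated with 10^-7 M TPA; tests in duplicate.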

[2] = test system: RARE, endogenic RAR and RXR receptors, HRL+N lineage; assay: HRL+N transactivation (RARE-luciferase, stably transfected HeLa); format: cell-based; parameters: Emax: dose or concentration left out as unconfirmed; conditions: for Emax: Homo sapiens, HeLa
Protocol: MCF-7 cells and HeLa are cultivated in DMFM with phenol red to which 5% foetal calf serum is added. The T47-D cells are cultivated in RPMI to which 10% foetal calf serum is added. The experimental tests are carried out in DMEM without phenol red to which foetal calf serum treated with dextran carbon is added at 3%. […] The experiments using the different retinoids are carried out sheltered from the light so as to avoid any isomerisation.
Certain properties of the retinoids have been determined using more developed cellular models. These models consist of cellular lineages transfected in a stable fashion by recombinant plasmids which place the expression of the gene of the luciferase under the control of different nuclear response elements. […] The tests carried out in duplicate are described below for each of these models.
The cellular lineages HRLN and HRL+N allow one to study the activation of an RARE by endogenic receptors using ligands at physiological concentrations. These lineages derive from HeLa cells transfected in a stable fashion by a reporter gene which places the expression of the gene of the luciferase under the control of a nuclear response element RARE (RARE3 -tk-Luc). The HeLa cells express all the known receptors of the retinoic acid (RARα,β,γ and RXRα,β,γ) with a predominance of RARα and RXRα. The response element RARE used for the HRLN cells corresponds to the sequence of the natural gene of the RARβ receptor (GGTTCAnnnnnAGTTCA). The HRL+N cells comprise the sequence GAGTGAnnnnnCGGTGA.
The HRL+N lineage allows one to visualise a co-activation of the RAR and RXR receptors at the level of the RAR-RXR hetero-dimer.

[3] = test system: human mammary tumoral lineage T-47D; assay: Clonogenic test (soft agar), growth of cellular colonies; format: cell-based; conditions: for activity at 0.01 µM / activity at 0.001 µM / activity at 0.0001 µM / activity at 0.1 µM: 504 h, read-out: mean number of cellular colonies in relation to control; for effect on growth of cellular colonies (in words): soft agar
Summary of the method: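 Colony counts (clones over 100 μm², MTT-stained for at least 3 h) are expressed as a percentage of the untreated control. T-47D cells grew anchorage-independently between a 0.5% agar base and a 0.3% agar top layer. Cultures were incubated for 21 days after treatment at 37 °C with 5% CO2.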

[4] = MCF7, read-out: anti-AP-1 effect, inhibition
[5] = Homo sapiens, T47D, T-47D, 10^-8 M, 21 days, control = 100%
[6] = Homo sapiens, T47D, T-47D, 10^-9 M, 21 days, control = 100%
[7] = Homo sapiens, T47D, T-47D, 10^-10 M, 21 days, control = 100%
[8] = Homo sapiens, T47D, T-47D, 10^-7 M, 21 days, control = 100%
[9] = MCF7, cells activated by 10^-7 M TPA, range of several experiments
[10] = MCF7, 10^-7 M, cells activated by 10^-7 M TPA, range of several experiments, read-out: anti-AP-1 effect, inhibition
[11] = read-out: HRL+N transactivation, E max (Table 27)

`Cc1cc2c(cc1C(=O)c1ccc(C(=O)O)cc1)C(C)(C)CCC2(C)C` [LGD-CB14499, reference compound] was tested, and the inhibition at 0.1 µM [1, 4] was 17 to 30%, the “anti-AP-1 effect (in words)” value [1] was “causes an inhibition of the AP-1 route” and the “HRL+N transactivation (in words)” value [2] was “induce a stronger transactivation with the HRL+N cells”.

`C/C(=C\c1ccc2c(c1)C(C)(C)CCC2(C)C)c1ccc(C(=O)Nc2nnn[nH]2)cc1` [CB73364] was tested, and the activity at 0.01 µM [3, 5] was 10.3 ± 2.8%, the activity at 0.001 µM [3, 6] was 54.9 ± 5.8% and the activity at 0.0001 µM [3, 7] was 99.3 ± 7.8%. For the same compound, the inhibition at 0.01 µM ([3]; Homo sapiens, T47D, T-47D, 10^-8 M, read-out: inhibition of colony growth) was 69.7% and the “effect on growth of cellular colonies (in words)” value (“effect on growth” for short) ([3]; T-47D) was “inhibit the growth of the cellular colonies”.

Compound `CC(C=C/C=C(C)\C=C\C1=C(C)CCCC1(C)C)=CC(=O)O` [CB13407, 9-cis retinoic acid, reference compound] has an inhibition at 0.01 µM [1, 4] of 30 to 37%, an activity at 0.1 µM [3, 8] of 6.7% and an activity at 0.01 µM [3, 5] of 45.6%. For the same compound, the activity at 0.001 µM [3, 6] was 52.8%, the activity at 0.0001 µM [3, 7] was 54.9% and the “effect on growth” value ([3]; T-47D) was “significant and dose dependent inhibiting activity”.

`C/C(=C/c1ccc2c(c1)C(C)(C)CCC2(C)C)c1ccc(-c2nnn[nH]2)cc1` [CB92834] was tested, and the inhibition at 1 µM [1, 9] was 20 to 23%, the inhibition at 0.1 µM [1, 10] was 4 to 9% and the “anti-AP-1 effect (in words)” value [1] was “anti-AP-1 molecules through RXR”. The “HRL+N transactivation (in words)” value [2] was “weak transactivation, less than that of TTNPB; also recorded: with a specific RAR agonist induces a stronger transactivation than that observed for each compound tested separately; also recorded: over-activation by CB92834 of the transactivation induced by a selective RAR agonist on the HRL+N lineage”, the Emax [2, 11] was 42% and the activity at 0.01 µM [3, 5] was 38 ± 2%. The activity at 0.001 µM [3, 6] was 58.9 ± 3.7%, the activity at 0.0001 µM [3, 7] was 82.5 ± 12% and the “effect on growth” value ([3]; T-47D) was “global inhibiting and dose dependent activity as great as that obtained with the best products in the trans series (E)”.

In the case of `CC1(C)CCC(C)(C)c2cc(/C=C(\c3ccc(C(=O)O)cc3)C(F)(F)F)ccc21` [CB36493, (E) 4-[1-trifluoromethyl-2-(5,6,7,8-tetrahydro-5,5,8,8-tetramethyl-2-naphthalenyl)-1-ethenyl]benzoic acid], the inhibition at 1 µM [1, 9] is reported as 38 to 46%, the inhibition at 0.1 µM [1, 10] is reported as 26% and the “anti-AP-1 effect (in words)” value [1] is reported as “exert an inhibitor effect comparable to that of the effect of CB28628”. For the same compound, the activity at 0.01 µM [3, 5] was 17.4 ± 2%, the activity at 0.001 µM [3, 6] was 24.8 ± 0.5% and the activity at 0.0001 µM [3, 7] was 35.8 ± 3.2%. For the same compound, the “effect on growth” value ([3]; T-47D) was “as active as the reference products CB13407 (9-cis RA) and LGD1069”.

In the case of `C/C(=C/c1ccc2c(c1)C(C)(C)CCC2(C)C)c1ccc(C(=O)O)cn1` [CB38416, (Z) 2-[1-(5,6,7,8-tetrahydro-5,5,8,8-tetramethyl-2-naphthalenyl)-2-propenyl]pyridinyl-5-carboxylic acid], the inhibition at 1 µM [1, 9] is reported as 21 to 25%, the inhibition at 0.1 µM [1, 10] is reported as 7 to 14% and the “HRL+N transactivation (in words)” value [2] is reported as “bring about a transactivation greater than RAR selective agonists (TTNPB)”. For the same compound, the Emax [2, 11] was 131%, the activity at 0.1 µM [3, 8] was 11.6 ± 1.9% and the activity at 0.01 µM [3, 5] was 15.3 ± 1.7%. The activity at 0.001 µM [3, 6] was 20 ± 0.2% and the “effect on growth” value ([3]; T-47D) was “as active as the reference products CB13407 (9-cis RA) and LGD1069”.

With `C/C(=C\c1cc2c(cc1C)C(C)(C)CCC2(C)C)c1ccc(C(=O)O)cc1` [CB71802] the activity at 0.01 µM [3, 5] was 45.2 ± 4.8%, the activity at 0.001 µM [3, 6] was 92.5 ± 9.6% and the activity at 0.0001 µM [3, 7] was 104 ± 2.3%.

`CC1=C(/C=C/C(C)=C/C=C/C(C)=C/C(=O)O)C(C)(C)CCC1` [CB16178, all-trans retinoic acid, reference compound] showed an inhibition at 0.01 µM [1, 4] of 22 to 33%, an inhibition at 0.1 µM [1, 4] of 28 to 44% and an Emax ([2]; read-out: HRL+N transactivation, Emax) of 225%.

`C/C(=C/c1ccc2c(c1)C(C)(C)CCC2(C)C)c1ccc(C(=O)O)nc1` [CB16279, (Z) 5-[1-(5,6,7,8-tetrahydro-5,5,8,8-tetramethyl-2-naphthalenyl)-2-propenyl]pyridinyl-2-carboxylic acid] was tested, and the inhibition at 1 µM [1, 9] was 23 to 26%, the “HRL+N transactivation (in words)” value [2] was “bring about a transactivation greater than RAR selective agonists (TTNPB)” and the activity at 0.1 µM [3, 8] was 102 ± 3.4%. For the same compound, the activity at 0.001 µM [3, 6] was 110 ± 1.5% and the “effect on growth” value ([3]; T-47D) was “does not induce any significant modification in the growth of the cellular colonies”.

With `C/C(=C\c1ccc(C(=O)O)cc1)c1ccc2c(c1)C(C)(C)CCC2(C)C` [TTNPB, reference compound] the inhibition at 0.01 µM [1, 4] was 26 to 53%, the inhibition at 0.1 µM [1, 4] was 29 to 54% and the activity at 0.0001 µM ([3]; Homo sapiens, T47D) was 34.1%. For the same compound, the activity at 0.001 µM ([3]; Homo sapiens, T47D) was 5.5%, the activity at 0.01 µM ([3]; Homo sapiens, T47D) was 2.1% and the activity at 0.1 µM ([3]; Homo sapiens, T47D) was 1.3%. The inhibition at 0.0001 µM ([3]; Homo sapiens, T47D, read-out: inhibition of colony growth) was 66%, the “effect on growth” value ([3]; T-47D) was “more active than the product CB36493 of the cis series (Z)” and the “effect on growth” value ([3]; T-47D, listed as CB01570) was “inhibits very strongly, in a significant and dose dependent manner the growth of cellular colonies”.

In the case of `CC1(C)CCC(C)(C)c2cc(/C=C(\c3ccc(-c4nnn[nH]4)cc3)C(F)(F)F)ccc21` [CB77402, (E) 5-[4-[1-trifluoromethyl-2-(5,6,7,8-tetrahydro-5,5,8,8-tetramethyl-2-naphthalenyl)-1-ethenyl]phenyl]-1H-tetrazole], the inhibition at 1 µM [1, 9] is reported as 30 to 33%, the inhibition at 0.1 µM [1, 10] is reported as 21 to 23% and the “anti-AP-1 effect (in words)” value [1] is reported as “anti-AP-1 molecules through RXR; also recorded: additive nature of the anti-AP-1 inhibitor effect”. The “HRL+N transactivation (in words)” value [2] was “weak transactivation, less than that of TTNPB; also recorded: with a specific RAR agonist induces a stronger transactivation than that observed for each compound tested separately” and the Emax [2, 11] was 33%.

With `C/C(=C/c1ccc2c(c1)C(C)(C)CCC2(C)C)c1ccc(C(=O)O)cc1` [CB28628, reference compound] the inhibition at 1 µM [1, 9] was 58%, the inhibition at 0.1 µM [1, 10] was 40% and the “anti-AP-1 effect (in words)” value [1] was “exhibits a strong anti-AP-1 effect on the MCF-7 cells”. For the same compound, the “HRL+N transactivation (in words)” value [2] was “induces a transactivation maximum greater than that of TTNPB”, the Emax [2, 11] was 158% and the activity at 0.1 µM [3, 8] was 21.4%. The activity at 0.01 µM [3, 5] was 97.6%, the activity at 0.001 µM [3, 6] was 89.2% and the “effect on growth” value ([3]; T-47D) was “strongly and significantly inhibits the growth of the cellular colonies at the concentration of 10^-7 M but very rapidly loses its activity beyond the concentration of 10^-8 M”.

From patent US6265423A, “Aromatic polycyclic retinoid-type derivatives, method for preparing same, and use thereof for making pharmaceutical and cosmetic compositions” (priority 1996, dated 2001)
